Consider one molecule from patent US20230303712A1, “METHODS OF TREATING GLIOBLASTOMA” (Ramot at Tel-Aviv University Ltd., priority 2020, published 2023).

Data set [1] concerns U251 and PD-GB4 GB cells. Description: In vitro cytotoxicity of SELPi (annexin-FITC/PI apoptosis-necrosis staining). It counts as cell-based, human. As for the experimental part: (§1) Flow cytometry. For flow cytometry assays, cells were harvested using a cell scraper, and were then washed with PBS followed by additional washes with PBS supplemented with 1% BSA and 5 mM EDTA (FACS buffer). Tumor spheroids were recovered from Matrigel using Cell Recovery Solution (Corning) and washed with FACS buffer. To validate the purity of the microglia preparations, CD11b isolated cells or human microglia were incubated with TMEM119 and P2Y12-labeled antibodies for 1 h. For human TMEM119, primary antibody was unlabeled and cells were washed and incubated with secondary, Alexa 488 conjugated antibody. To assess P-Selectin and PSGL-1 expression, GB cells and microglia were seeded alone, co-cultured in a 2D petri dish, or grown as spheroids seeded in Matrigel. Cells were treated with control medium or CM for 48 h. They were then incubated with mouse anti-human P-Selectin antibody for 1 h on ice, and then were washed, and incubated with Alexa-488 labeled anti-mouse IgG binding protein for 1 h on ice. Alternatively, cells were incubated with rat anti-human PSGL antibody, and then were washed, and incubated with goat anti-rat, Alexa-488 labeled antibody for 1 h on ice. […] Fluorescence intensity was assessed using either an Attune flow cytometer (Life Technologies) or a Gallios™ flow cytometer (Beckman Coulter, USA) and the results were analyzed by Kaluza software (Beckman Coulter, USA).

Data set [2] concerns human microglia. Description: Flow cytometry of CD163 and CD206 expression by microglia. It counts as cell-based. The conditions noted are these: PD-GB4 CM with rSELP, or SELPi added to PD-GB4 CM. The protocol: as §1
On the technique in general: A flow cytometer gives signals particle by particle.

The target in data set [3] is T1, L-Selectin (Homo sapiens, UniProt P14151).
T1 sequence (P14151 39-372): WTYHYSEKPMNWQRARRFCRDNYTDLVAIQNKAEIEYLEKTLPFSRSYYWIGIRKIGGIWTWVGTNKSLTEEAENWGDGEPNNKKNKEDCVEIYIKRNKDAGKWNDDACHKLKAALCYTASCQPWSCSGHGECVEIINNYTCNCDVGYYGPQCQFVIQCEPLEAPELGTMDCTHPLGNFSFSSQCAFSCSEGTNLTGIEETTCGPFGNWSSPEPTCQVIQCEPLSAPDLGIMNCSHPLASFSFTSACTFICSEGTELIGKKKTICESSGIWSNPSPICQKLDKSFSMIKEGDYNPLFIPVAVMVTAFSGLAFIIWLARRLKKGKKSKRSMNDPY
As to conditions: cited from earlier work.

`COc1ccc(C2CC(c3c(O)cc(C)oc3=O)=NCCS2)c(OC)c1` (stereo not shown) [SELPi, 3-[7-(2,4-Dimethoxyphenyl)-2,3,6,7-tetrahydro-1,4-thiazepin-5-yl]-4-hydroxy-6-methyl-2H-pyran-2-one]: the toxicity result in data set [1] (0.5 µM SELPi (working concentration)) was “no toxicity was observed”. The “percentage of apoptotic cells” value in data set [1] (5 and 10 µM SELPi, 72 h) is given as “slight increase in the percentage of apoptotic cells”. Further, the CD206 expression result in data set [2] is listed as “reduced CD206 expression”. Moreover, in data set [3], the “inhibiting effect on L-Selectin” value is on record as “no inhibiting effects”.
